Assay results taken from US7652006B2, “Substituted 1(2H)-phthalazinones and pharmaceutical compositions thereof” (Euro-Celtique S.A., priority 1998, dated 2010).
Where a name gives a salt, the structure may show the parent alone. Read-outs that look alike come from different tables or passages of the source.

Experiments:
AMPA receptors = assay: electrophysiological assay, AMPA receptors expressed in oocyte; assay type: cell-based, rat
From the text: The compounds of the present invention may be assessed by electrophysiological assays in Xenopus oocytes expressing rat whole brain poly(A)^+ RNA (see Keana et. al. J. Med. Chem. 38: 4367-4379 (1995)) or in cultured rat cortical neurons (see Woodward et. al. Mol. Pharmacol. 47: 568-581 (1995)) for AMPA receptor activity. Compounds which are useful for treating or preventing the adverse consequences of stroke, hypoglycemia, neurodegenerative disorders, anxiety, epilepsy or psychosis, or which induce analgesia, will inhibit the currents across the membranes of the oocyte expressing AMPA receptors. However, if the compound potentiates currents across the oocyte membrane, then the compound is expected to be useful in enhancing cognition or treating schizophrenia or neurodegenerative disease such as Parkinson's Disease.
The potency of antagonism or potentiation for these compounds were determined by electrophysiological assay. Potencies of selective compounds described above in inhibiting or modulating AMPA receptors expressed in oocyte and their anticonvulsant activity against maximal electroshock induced convulsion are shown in Table 1.

[1] = inhibiting or modulating AMPA receptors expressed in oocyte; read-out: AMPA IC50

| Compound | IC50 (AMPA receptors; [1]) | also measured |
| --- | --- | --- |
| c1cn(Cc2nc(-c3ccc4c(c3)OCO4)c3cc4c(cc3n2)OCO4)cn1 | – | melting point: 182 to 185 °C |
| CC(=O)OCc1nc(-c2ccc3c(c2)OCO3)c2cc3c(cc2n1)OCO3 | – | melting point: 144 to 147 °C |
| c1cc2c(cc1-c1nc(OCC3CC3)nc3cc4c(cc13)OCO4)OCO2 | – | melting point: 175 to 182 °C |
| CC(C)n1c(=O)nc(-c2ccc(N(C)C)cc2)c2cc3c(cc21)OCO3 | – | melting point: 240 to 245 °C |
| COc1nc(-c2ccc3c(c2)OCO3)c2cc3c(cc2n1)OCO3 | – | melting point: 216 to 223 °C |
| CC(CN(C)C)Oc1nc(-c2ccc3c(c2)OCO3)c2cc3c(cc2n1)OCO3 (centres unmarked) | – | melting point: 172 to 175 °C |
| CC(CN(C)C)On1c(=O)nc(-c2ccc3c(c2)OCO3)c2cc3c(cc21)OCO3 (centres unmarked) | – | melting point: 160 to 165 °C |
| O=c1nc(-c2ccc3c(c2)OCO3)c2cc3c(cc2[nH]1)OCO3 | – | melting point: > 300 °C |
| O=c1nc(-c2ccccc2)c2cc3c(cc2[nH]1)OCO3 | – | melting point: 351 to 354 °C |
| 1-[2-(N-methylpyrrolidin-1-yl)ethyl]-6,7-methylenedioxy-4-(3,4-methylenedioxyphenyl)quinazoline-2-one | 4 µM | – |
| O=c1nc(-c2ccc3c(c2)OCO3)c2cc3c(cc2n1CCN1CCCC1)OCO3 [1-(2-Pyrrolidinylethyl)-6,7-methylenedioxy-4(3,4-methylenedioxyphenyl)quinazolin-2(1H)-one] | 1.6 µM | – |
| NCCn1c(=O)nc(-c2ccc3c(c2)OCO3)c2cc3c(cc21)OCO3 [1-(2-aminoethyl)-6,7-methylenedioxy-4-(3,4-methylenedioxyphenyl)quinazoline-2(1H)-one] | 1 µM | – |
| CN(C)CCCn1c(=O)nc(-c2ccc3c(c2)OCO3)c2cc3c(cc21)OCO3 [1-(3-Dimethylaminopropyl)-6,7-methylenedioxy-4-(3,4-methlenedioxyphenyl)quinazoline-2-one] | 3 µM | – |
| O=c1nc(-c2ccc3c(c2)OCO3)c2cc3c(cc2n1CCn1ccnc1)OCO3 [1-(Imidazol-1-yl)ethyl-6,7-methylenedioxy-4-(3,4-methylenedioxyphenyl)quinazoline-2-one] | 5 µM | – |
| O=c1nc(-c2ccc3c(c2)OCO3)c2cc3c(cc2n1CCN1CCCCC1)OCO3 [1-(Piperidin-1-yl)ethyl-6,7-methylenedioxy-4-(3,4-methylenedioxyphenyl)quinazoline-2-one] | 4 µM | – |
| CCn1c(=O)nc(-c2cc3c(cc2N)OCO3)c2cc3c(cc21)OCO3 [1-Ethyl-6,7-methylenedioxy-4-(2-amino-4,5-methylenedioxyphenyl)quinazolin-2(1H)-one] | 7 µM | – |
| CCn1c(=O)nc(-c2ccc3ccccc3c2)c2cc3c(cc21)OCO3 [1-Ethyl-6,7-methylenedioxy-4-(2-naphthyl)quinazolin-2(1H)-one] | 5 µM | – |
| CCn1c(=O)nc(-c2cc3c(cc2[N+](=O)[O-])OCO3)c2cc3c(cc21)OCO3 [1-Ethyl-6,7-methylenedioxy-4-(3,4-methylenedioxy-6-nitrophenyl)quinazolin-2(1H)-one] | 4.7 µM | – |
| CC(C)n1c(=O)nc(-c2ccc3c(c2)OCCO3)c2cc3oc(=O)n(C)c3cc21 [1-Isopropyl-4-(3,4-ethylenedioxyphenyl)-8-methyl-7-oxo-oxazol[5.4-g]quinazolin-2(1H)-one] | 3.2 µM | – |
| ClCCc1nc(-c2ccc3c(c2)OCO3)c2cc3c(cc2n1)OCO3 [2-(2-Chloroethyl)-6,7-methylenedioxy-4-(3,4-methylenedioxyphenyl)quinazoline] | – | IC50 (AMPA receptors; read-out: AMPA IC50; inhibiting or modulating AMPA receptors expressed in oocyte): 3 µM |

More lines, main results first:

| IC50 (AMPA receptors; [1]) | Compound | also measured |
| --- | --- | --- |
| 3 µM | CC(C)n1c(=O)nc(-c2ccc3c(c2)OCO3)c2cc3oc(=O)n(Cc4ccccc4)c3cc21 [1-Isopropyl-4-(3,4-methylenedioxyphenyl)-8-benzyl-7-oxo-oxazol[5,4-g]quinazolin-2(1H)-one] | – |
| 1.5 µM | O=c1nc(-c2ccc3c(c2)OCO3)c2cc3c(cc2n1CCO)OCO3 [1-[(2-Hydroxy)ethyl]-6,7-methylenedioxy-4-(3,4-methylenedioxyphenyl)quinazoline-2-one] | – |
| 13 µM | COCCn1c(=O)nc(-c2ccc3c(c2)OCO3)c2cc3c(cc21)OCO3 [1-[(2-Methoxy)ethyl]-6,7-methylenedioxy-4-(3,4-methylenedioxyphenyl)quinazoline-2-one] | – |
| 6 µM | O=c1nc(-c2ccc3c(c2)OCO3)c2cc3c(cc2n1CC1CC1)OCO3 [1-cyclopropylmethyl-6,7-methylenedioxy-4-(3,4-methylenedioxyphenyl) quinazolin-2(1H)-one] | – |
| 6 µM | [O-][n+]1c(Cn2ccnc2)nc2ccc3c(c2c1-c1ccc2c(c1)OCO2)OCO3 [2-(1-Imidazolyl)methyl-5,6-methylenedioxy-4-(3,4-methylenedioxyphenyl)quinazoline 3-oxide hydrochloride] | – |
| 8 µM | CN(C)CCc1nc(-c2ccc3c(c2)OCO3)c2cc3c(cc2n1)OCO3 [2-(2-Dimethylaminoethyl)-4-(3,4-methylenedioxyphenyl)-6,7-methylenedioxyquinazoline] | – |
| 11 µM | ClCCCc1nc(-c2ccc3c(c2)OCO3)c2cc3c(cc2n1)OCO3 [2-(3-Chloropropyl)-4-(3,4-methylenedioxyphenyl)-6,7-methylenedioxyquinazoline] | – |
| 12 µM | NCCCc1nc(-c2ccc3c(c2)OCO3)c2cc3c(cc2n1)OCO3 [2-(3-aminopropyl)-6,7-methylenedioxy-4-(3,4-methylenedioxyphenyl)quinazoline] | – |
| 7 µM | [O-][n+]1c(CN2CCCC2)nc2cc3c(cc2c1-c1ccc2c(c1)OCO2)OCO3 [2-(Pyrrolidin-1-yl)methyl-6,7-methylenedioxy-4-(3,4-methylenedioxyphenyl)quinazoline-3-oxide] | – |
| 6 µM | Clc1nc(-c2ccc3c(c2)OCO3)c2cc3c(cc2n1)OCO3 [2-Chloro-4-(3,4-methylenedioxyphenyl)-6,7-methylendioxyquinazoline] | – |
| 10 µM | CN(C)Cc1nc2cc3c(cc2c(-c2ccc4c(c2)OCO4)[n+]1[O-])OCO3 [2-Dimethylaminomethyl-6,7-methylenedioxy-4-(3,4-methylenedioxyphenyl)quinazoline-3-oxide] | – |
| 6 µM | CCOc1nc(-c2ccc3c(c2)OCO3)c2cc3c(cc2n1)OCO3 [2-Ethoxy-6,7-methylenedioxy-4-(3,4-methylenedioxyphenyl)-quinazoline] | – |
| 3 µM | CCn1nc(-c2ccc3c(c2)OCO3)c2cc3c(cc2c1=O)OCO3 [2-Ethyl-4-(3,4-methylenedioxyphenyl)-6,7-methylenedioxy-1(2H) -phthalazinone] | – |
| 4.3 µM | CCc1nc(-c2ccc3c(c2)OCO3)c2cc3c(cc2n1)OCO3 [2-Ethyl-4-(3,4-methylenedioxyphenyl)-6,7-methylenedioxyquinazoline] | – |
| 6 µM | OCc1nc(-c2ccc3c(c2)OCO3)c2cc3c(cc2n1)OCO3 [2-Hydroxymethyl-6,7-methylenedioxy-4-(3,4-methylenedioxyphenyl)quinazoline] | – |
| 7 µM | ICc1nc(-c2ccc3c(c2)OCO3)c2cc3c(cc2n1)OCO3 [2-Iodomethyl-6,7-methylenedioxy-4-(3,4-methylenedioxyphenyl)quinazoline] | – |
| 4 µM | Cc1nc2cc3c(cc2c(-c2ccc4c(c2)OCO4)[n+]1[O-])OCO3 [2-Methyl-6,7-methylenedioxy-4-(3,4-methylenedioxyphenyl)quinazoline 3-oxide] | – |
| 3 µM | CCOC(=O)CCn1nc(-c2ccc3c(c2)OCO3)c2cc3c(cc2c1=O)OCO3 [2-[2(ethoxycarbonyl)ethyl]-4-(3,4-methylenedioxyphenyl)-6,7-methylenedioxy-1(2H)-phthalazinone] | – |
| 6 µM | O=c1c2cc3c(cc2c(-c2ccc4c(c2)OCO4)nn1CCn1ccnc1)OCO3 [2-[2-(1-Imidazolyl)ethyl]-4-(3,4-methylenedioxyphenyl)-6,7-methylenedioxy-1(2H)-phthalazinone] | – |
| 10 µM | c1cn(CCOc2nc(-c3ccc4c(c3)OCO4)c3cc4c(cc3n2)OCO4)cn1 [2-[2-(Imidazol-1-yl)ethoxy]-6,7-methylenedioxy-4-(3,4-methylenedioxyphenyl)quinazoline] | – |
| 4 µM | OCCOc1nc(-c2ccc3c(c2)OCO3)c2cc3c(cc2n1)OCO3 [2-[(2-Hydroxy)ethoxy]-6,7-methylenedioxy-4-(3,4-methylenedioxyphenyl)quinazoline] | – |
| 12 µM | CN(C)CCCCCOc1nc(-c2ccc3c(c2)OCO3)c2cc3c(cc2n1)OCO3 [2-[(3-Dimethylaminopropyl)ethoxy]-6,7-methylenedioxy-4-(3,4-methylenedioxyphenyl)quinazoline] | – |
| 4 µM | O=c1nc(-c2ccc3c(c2)OCO3)c2cc3c(cc2n1CCN1CCOCC1)OCO3 [4-(4,4-methylenedioxyphenyl)-6,7-methylenedioxy-1-(2-morpholinylethyl)-quinazolin-2(1H)-one] | – |
| 7 µM | CC(C)n1c(=O)nc(-c2ccc3c(c2)OCO3)c2cc3c(cc21)OCCO3 [6,7-Ethylenedioxy-1-isopropyl-4-(3,4-methylenedioxyphenyl)quinazolin-2(1H)-one] | – |
| 12 µM | c1cc2c(cc1-c1nc(CN3CCNCC3)nc3cc4c(cc13)OCO4)OCO2 [6,7-Methylenedioxy-2-(piperazin-1-yl)methyl-4-(3,4-methylenedioxyphenyl)quinazoline] | – |
| 4.5 µM | Cc1nc(-c2ccc3c(c2)OCO3)c2cc3c(cc2n1)OCO3 [6,7-Methylenedioxy-4-(3,4-methylenedioxyphenyl)-2-methylquinazoline] | – |
| 6 µM | CC(C)(O)c1nc(-c2ccc3c(c2)OCO3)c2cc3c(cc2n1)OCO3 [6,7-methylenedioxy-4-(3,4-methylenedioxyphenyl)-2-(1-hydroxy-1-methylethyl)quinazoline] | – |
